{"source": "patent US6005099A", "about": "“Glucosamine disaccharides, method for their preparation, pharmaceutical composition comprising same, and their use” (priority 1993, dated 1999)", "key": {"protease in LAL [1]": {"system": "protease in LAL", "test": "Endotoxicity, chromogenic LAL test", "type": "biochemical, Limulus polyphemus", "conditions": "ng LPS per ng product, n = 1-10", "description": "(§1) The endotoxicity and the biological activity of disaccharide A (example 1) and of disaccharide B (example 2) were determined and compared to that of lipopolysaccharide originating from Escherichia coli O111:B4 (Sigma, Product No. L3024), lipid A (Sigma, Product No. L5399; used as a starting material in example 4), and 3-O-deacylated lipid A originating from lipid A of Escherichia coli F583 (prepared as in the comparative example), but without purification by HPLC.\n(§2) The endotoxicity was determined in the Limulus amoebocyte lysate (LAL) test. This test is based on the observation that endotoxins induce coagulation of the hemolymph of Limulus polyphemus.\n(§3) The endotoxicity was also measured in the chromogenic test, in which the activation of a protease in LAL by LPS was measured using a chromogen (Ac-Ile-Glu-Ala-Arg-pNA; Bio Whittaker Kit No. 50-650U). The colour formation (liberation of pNA (p-nitroaniline)) was measured at 405 nm.\n(§4) Samples were pre-incubated at 37° C. during 10 minutes and subsequently chromogen-comprising LAL was added. The time required for reaching an optical density of 0.2 at 405 nm was measured. The endotoxin activity was calculated in comparison to a reference curve obtained for LPS standards.\n(§5) The results are expressed in table 3 as: ng LPS per ng product."}, "[2]": {"system": "Limulus amoebocyte lysate (LAL)", "test": "Endotoxicity in the limulus amoebocyte lysate (LAL) test (gelification and chromogenic)", "type": "biochemical, Limulus polyphemus", "description": "as §1, §2\n(§6) In the gelification test serial dilutions of the compound to be tested were mixed with LAL 1:1, (v/v) (Haemachem Inc., sensitivity LAL 0.06 endotoxin units/ml), and the mixture was incubated for one hour at 37° C. Then gel formation was monitored by measuring the optical density at 405 nm. The last dilution which formed a gel was determined by inverting the reaction microplate. The endotoxin activity in the samples was determined by comparison with dilutions of a lipopolysaccharide standard (1 endotoxin unit=0.1 ng LPS).\nThe endotoxicity was also measured in the chromogenic test, in which the activation of a protease in LAL by LPS was measured using a chromogen (Ac-Ile-Glu-Ala-Arg-pNA; Bio Whittaker Kit No. 50-650U). […]"}, "[3]": {"system": "macrophages of C57BL/6 mice", "test": "Prostaglandin E2 (PGE2) production in supernatants of macrophages, RIA", "type": "cell-based", "description": "(§7) Bone marrow was collected from hip, femur and tibia of six week old male C57BL/6 mice.\n(§8) After 7 days the mature macrophages were collected and resuspended in Dulbecco modified medium comprising 5% foetal calf serum to a concentration of 7×10^6 cells per ml. This cell suspension was mixed 1:1, (v/v) with samples diluted in the same medium and used in the biological tests performed in microplates with 70,000 cells/well (incubation at 37° C. for 22 hours, 100% humidity and 8% CO2)."}, "protease in LAL [4]": {"system": "protease in LAL", "test": "Endotoxicity, chromogenic LAL test with 0.1 mg/ml bovine serum albumin", "type": "biochemical, Limulus polyphemus", "conditions": "n=4 or 6", "description": "as §3, §4\nThe endotoxicity of the disaccharides E, F and G was determined using the chromogenic LAL test (see infra). However, instead of using 1 mg/ml bovine serum albumin, 0.1 mg/ml has been used. The results (n=4 or 6) were obtained in two series of experiments and are shown hereafter."}, "NMRI mice": {"system": "NMRI mice", "test": "Acute toxicity in NMRI mice", "type": "in vivo", "conditions": "caudal vein, up to 100 mg/kg", "description": "Disaccharide A was injected into the caudal vein of male and female NMRI mice (age 6-7 weeks)."}, "[5]": {"system": "macrophages of C57BL/6 mice", "test": "Production of TNF-α in supernatants of macrophages, ELISA", "type": "cell-based", "description": "(§9) Bone marrow was collected from hip, femur and tibia of six week old male C57BL/6 mice. After homogenization of the marrow suspension in Dulbecco modified medium and centrifugation, the pellet was resuspended in Dulbecco modified medium and the cells were cultivated at a concentration of 4×10^5 cells per ml in the same medium supplemented with 30% supernatant of L-929 fibroblasts (a common source for colony stimulating factor 1 [CSF-1]) and 20% horse serum.\nas §8\nThe concentration of TNF-α in supernatants of macrophages was determined by an ELISA test (Kit GENZYME, Factor-test mTNF-α)."}, "[6]": {"system": "macrophages of C57BL/6 mice", "test": "Nitric oxide (NO) production in supernatants of macrophages", "type": "cell-based", "description": "as §7, §8\nNitric oxide (NO) is produced by macrophages in response to bacterial infection and in particular LPS. NO seems to have cytostatic and cytotoxic properties. NO is extremely reactive and rapidly converted by oxidation into nitrite and nitrate.\nThe nitrite formation was determined using the Griess test (addition of 1:1, (v/v) N-(1-naphthyl)ethylene diamine hydrochloride [1 g/l in water] and p-aminobenzenesulphonamide [10 g/l in 5% H3 PO4 ]). The nitrite concentration in supernatants of activated macrophages was calculated in comparison to NaNO2 standards."}, "[7]": {"system": "Limulus amoebocyte lysate (LAL)", "test": "Endotoxicity, LAL gelification test", "type": "biochemical, Limulus polyphemus", "conditions": "ng LPS per ng product, n = 2-12", "description": "as §1, §2, §6, §5"}, "[8]": {"system": "macrophages of C57BL/6 mice", "test": "Production of interleukin-1α (IL-1α) in supernatants of macrophages, ELISA", "type": "cell-based", "description": "as §9, §8\nThe concentration of IL-1α in the supernatants of macrophages was measured by an ELISA-test (Kit GENZYME, Intertest-1α)."}, "[9]": {"system": "macrophages of C57BL/6 mice", "test": "Production of interleukin-6 (IL-6) in supernatants of macrophages, ELISA", "type": "cell-based", "description": "as §7, §8\nIL-6 concentration in supernatants of macrophages was determined by an ELISA test (Kit ENDOGEN, EM-IL-6)."}, "[10]": {"conditions": "highest concentration tested 500 μg/ml"}, "[11]": {"conditions": "for lipid A and 3-O-deacylated lipid A activity relatively constant within the tested range, no maximum"}}, "note": "Entries after “also recorded” stand apart in the source; their conditions may differ."}
{"smiles": "CCCCCCCCCCCC(=O)O[C@H](CCCCCCCCCCC)CC(=O)N[C@H]1[C@H](OC[C@H]2O[C@H](OP(=O)(O)O)[C@H](NC(=O)C[C@H](O)CCCCCCCCCCC)[C@@H](O)[C@@H]2O)O[C@H](CO)[C@@H](OP(=O)(O)O)[C@@H]1O", "note": "[disaccharide A, 2-Deoxy-6-O-[2-deoxy-2-[(R)-3-dodecanoyloxytetradecanoylamino]-4-O-phosphono-β-D-glucopyranosyl]-2-[(R)-3-hydroxytetradecanoylamino]-α-D-glucopyranosyl dihydrogenphosphate]", "values": [{"measurement": "Endotoxic activity in LAL, chromogen", "setting": "protease in LAL [1]", "value": "0.0014 ± 0.0013", "unit": "ng/ng"}, {"measurement": "Endotoxicity in LAL, in words", "setting": "[2]", "value": "lowest endotoxicity"}, {"measurement": "PGE2 at highest concentration inducing an activity", "setting": "[3]; 500 μg/ml, detection limit of the order of 80 pg/ml", "value": "540 ± 65", "unit": "pg/mL"}, {"measurement": "PGE2 at lowest concentration inducing an activity", "setting": "[3]; LPS 6.25, 3-O-deacylated lipid A 500, disaccharide A 16 μg/ml, detection limit of the order of 80 pg/ml", "value": "80 ± 41", "unit": "pg/mL"}, {"measurement": "minimal effective concentration", "setting": "[3]; Mus musculus, Macrophage, 22 h, detection limit of the order of 80 pg/ml, read-out: PGE2: Lowest concentration inducing an activity", "value": 16, "unit": "µg/mL"}, {"measurement": "PGE2: Highest concentration inducing an activity", "setting": "[3]; highest concentration used", "value": 500, "unit": "µg/mL"}, {"measurement": "PGE2 production, in words", "setting": "[3]; macrophages of C57BL/6 mice", "value": "significantly lower than for LPS; also recorded: more active than lipid A and 3-O-deacylated lipid A"}, {"measurement": "Endotoxic activity in LAL", "setting": "protease in LAL [4]", "value": "0.000003 ± 0.000002", "unit": "mg/mg"}, {"measurement": "Acute toxicity, deaths", "setting": "NMRI mice", "value": "did not induce any death"}, {"measurement": "TNF-α at concentration 500 μg/ml", "setting": "[5]; 500 μg/ml", "value": "530 ± 139", "unit": "pg/mL"}, {"measurement": "minimal effective concentration", "setting": "[5]; Mus musculus, Macrophage, 22 h, detection limit in the order of 100 pg/ml, read-out: TNF-α: Minimum activity detected, concentration", "value": 0.16, "unit": "µg/mL"}, {"measurement": "TNF α at minimum activity detected", "setting": "[5]; at the concentration of minimum activity, LPS 0.006, lipid A 0.016, 3-O-deacylated lipid A 0.016, disaccharide A 0.16 μg/ml", "value": "159 ± 43", "unit": "pg/mL"}, {"measurement": "TNF-α at highest concentration tested", "setting": "[5]; [10]", "value": "530 ± 139", "unit": "pg/mL"}, {"measurement": "TNF-α production, in words", "setting": "[5]; macrophages of C57BL/6 mice", "value": "equally or more strongly than lipid A or 3-O-deacylated lipid A"}, {"measurement": "EC50", "setting": "[6]; Mus musculus, Macrophage, product concentration corresponding to 50% activity, 22 hours, 37° C.", "value": 0.16, "unit": "µg/mL"}, {"measurement": "minimal effective concentration", "setting": "[6]; Mus musculus, Macrophage, product concentration corresponding to induced NO activity, 22 hours, 37° C., read-out: NO production: Minimum activity (product concentration)", "value": 0.016, "unit": "µg/mL"}, {"measurement": "NO activity at 50% in nmol of NO2- /ml", "setting": "[6]; extrapolated from the series dilution curve", "value": "5 nmol of NO2- /ml"}, {"measurement": "NO production, in words", "setting": "[6]; macrophages of C57BL/6 mice", "value": "induce NO production of the same order; also recorded: as strongly as lipid A and 3-O-deacylated lipid A"}, {"measurement": "NO production: Maximum activity (product concentration)", "setting": "[6]; product concentration corresponding to induced NO activity, 22 hours, 37° C.", "value": 50, "unit": "µg/mL"}, {"measurement": "Endotoxic activity in LAL, gelification", "setting": "[7]", "value": "0.003 ± 0.002", "unit": "ng/ng"}, {"measurement": "IL-1α at concentration 500 μg/ml", "setting": "[8]; 500 μg/ml", "value": "75 ± 45", "unit": "pg/mL"}, {"measurement": "minimal effective concentration", "setting": "[8]; Mus musculus, Macrophage, 22 h, detection limit in the order of 15 pg/ml, read-out: IL-1α: Minimum activity detected, concentration", "value": 16, "unit": "µg/mL"}, {"measurement": "IL-1α at minimum activity detected", "setting": "[8]; at the concentration of minimum activity, LPS 1.56, lipid A 50, 3-O-deacylated lipid A 160, disaccharide A 16 μg/ml", "value": "19 ± 11", "unit": "pg/mL"}, {"measurement": "IL-1α at highest concentration tested", "setting": "[8]; [10]", "value": "75 ± 45", "unit": "pg/mL"}, {"measurement": "IL-1α production, in words", "setting": "[8]; macrophages of C57BL/6 mice, comparison partly at 500 μg/ml", "value": "not significantly different; also recorded: at least as strong as by lipid A and 3-O-deacylated lipid A"}, {"measurement": "IL-6 at 50% activity", "setting": "[9]; 50% activity", "value": 2850, "unit": "pg/mL"}, {"measurement": "minimal effective concentration", "setting": "[9]; Mus musculus, Macrophage, 22 h, read-out: IL-6: Minimum activity, concentration", "value": 0.016, "unit": "µg/mL"}, {"measurement": "EC50", "setting": "[9]; Mus musculus, Macrophage, read-out: IL-6: 50% activity, concentration", "value": 1, "unit": "µg/mL"}, {"measurement": "IL-6 at minimum activity", "setting": "[9]; at the concentration of minimum activity", "value": "850 ± 350", "unit": "pg/mL"}, {"measurement": "IL-6: Maximum activity, concentration", "setting": "[9]; [11]", "value": 50, "unit": "µg/mL"}, {"measurement": "IL-6 at maximum activity", "setting": "[9]; [11]", "value": "5700 ± 2650", "unit": "pg/mL"}, {"measurement": "IL-6 production, in words", "setting": "[9]; macrophages of C57BL/6 mice", "value": "significantly lower than for LPS; also recorded: more strongly than lipid A and 3-O-deacylated lipid A"}]}
